The subject of assay [1] is angiotensin I converting enzyme. The assay can be described thus: inhibition of pressor response following angiotensin I challenge in the dog. The class given is in vivo. The note with it: oral dose of 10 mg/Kg.
The test system of assay [2] is spontaneous hypertensive rat. In words: blood pressure and heart rate in the spontaneous hypertensive rat. The class given is in vivo. On the procedure: The in vivo lowering effect on the blood pressure is recorded either directly by means of a catheter, for example placed in the dog's femoral artery, or indirectly by sphygmomanometry at the rat's tail, and a transducer, expressing the blood pressure prior and after dosing in mm Hg. Thus, for example, representative members of the compounds of this invention, illustrated by the Examples herein, are very effective in hypertensive rats and dogs at p.o.-doses as low or lower than 50 mg/kg/day.

Assay [3] deals with angiotensin I converting enzyme. In words: inhibition of pressor response following angiotensin I challenge in normotensive rats. The note with it: rat. The assay is classed as in vivo.
Procedure: The inhibition of said enzyme prevents the generation of angiotensin II from I and, therefore, attenuates any pressure response following an angiotensin I challenge.
The corresponding in vivo test is performed with male, normotensive rats, which are anesthetized with 100-120 mg/kg i.p. of sodium ethyl-(1-methylpropyl)malonylthiourea. A femoral artery and saphenous vein are cannulated for direct blood pressure measurement and i.v. administration of angiotensin I and compounds of this invention. After the basal blood pressure is stabilized, pressor responses to 3 challenges of 0.33 μg/kg of angiotensin I i.v., in 5 minute intervals, are obtained. Such pressure responses are again obtained 5, 10, 15, 30 and 60 minutes after either i.v., or p.o. administration (stomach tube) of the compounds to be tested, and compared with the initial responses.
The target in assay [4] is T1, angiotensin-converting enzyme (Oryctolagus cuniculus, UniProt P12822).
T1 construct: freshly prepared from lungs of adult male rabbits; from tissue; host or cells: lungs of adult male rabbits
T1 sequence (P12822 34-1310): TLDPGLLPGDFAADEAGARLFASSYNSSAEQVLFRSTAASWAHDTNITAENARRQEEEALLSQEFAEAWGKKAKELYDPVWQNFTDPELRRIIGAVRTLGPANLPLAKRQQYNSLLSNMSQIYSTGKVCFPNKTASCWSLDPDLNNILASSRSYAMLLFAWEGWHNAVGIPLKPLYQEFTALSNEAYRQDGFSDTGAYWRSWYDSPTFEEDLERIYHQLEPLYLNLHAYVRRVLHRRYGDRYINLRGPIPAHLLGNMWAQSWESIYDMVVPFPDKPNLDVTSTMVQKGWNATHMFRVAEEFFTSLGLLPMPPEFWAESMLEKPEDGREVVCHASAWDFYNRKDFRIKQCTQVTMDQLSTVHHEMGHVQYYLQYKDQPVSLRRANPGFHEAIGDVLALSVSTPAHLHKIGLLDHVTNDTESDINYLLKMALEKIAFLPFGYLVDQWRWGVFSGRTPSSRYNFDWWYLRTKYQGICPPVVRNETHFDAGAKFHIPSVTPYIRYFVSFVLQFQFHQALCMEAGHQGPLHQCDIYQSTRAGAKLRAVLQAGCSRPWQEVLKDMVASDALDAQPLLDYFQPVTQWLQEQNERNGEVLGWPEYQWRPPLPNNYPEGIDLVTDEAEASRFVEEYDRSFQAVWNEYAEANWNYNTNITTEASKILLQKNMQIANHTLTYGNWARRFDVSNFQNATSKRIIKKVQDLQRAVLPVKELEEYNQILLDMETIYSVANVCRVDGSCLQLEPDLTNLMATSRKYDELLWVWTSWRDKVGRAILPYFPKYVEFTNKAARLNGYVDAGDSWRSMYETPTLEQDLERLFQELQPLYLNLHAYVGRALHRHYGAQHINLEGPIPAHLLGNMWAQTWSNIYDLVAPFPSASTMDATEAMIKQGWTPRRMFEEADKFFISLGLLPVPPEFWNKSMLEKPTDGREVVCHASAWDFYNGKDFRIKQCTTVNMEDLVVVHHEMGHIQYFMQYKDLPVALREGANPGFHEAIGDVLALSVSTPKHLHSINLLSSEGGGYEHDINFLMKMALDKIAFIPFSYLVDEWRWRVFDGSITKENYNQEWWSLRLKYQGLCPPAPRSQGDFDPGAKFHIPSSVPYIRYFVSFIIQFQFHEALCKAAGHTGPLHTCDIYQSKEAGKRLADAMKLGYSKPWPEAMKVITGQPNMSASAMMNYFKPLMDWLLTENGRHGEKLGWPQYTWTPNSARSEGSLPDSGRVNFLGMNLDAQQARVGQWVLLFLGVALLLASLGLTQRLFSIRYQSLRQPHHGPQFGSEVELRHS
In words: in vitro inhibition of the angiotensin-converting enzyme. The assay is classed as biochemical, rabbit. The note with it: hippuryl-histidyl-leucine substrate, 37°, 30 minutes; enzyme from lungs of adult male rabbits. On the procedure: Biophys. Acta 293, 451 (1973). According to this method said compounds are dissolved at about 1 mM concentrations in phosphate buffer, externally cooled with ice. […] Said solutions are incubated at 37° for 30 minutes and combined with 0.75 ml of 0.6 N aqueous sodium hydroxide to stop further reaction. Then 100 μl of o-phthalaldehyde are added at room temperature, and 10 minutes later 100 μl of 6N hydrochloric acid. These samples are read against water in a spectrophotometer set at 360 nm, and the optical densities thereof estimated. They are corrected for the standard curve via a conversion factor expressing nanomoles of histidyl-leucine formed during said 30 minute incubation period. The results are plotted against drug concentration to determine the IC50, i.e., the drug concentration which gives half the activity of the control sample containing no drug.

Regarding `C[C@H](C[C@@H](C)C(=O)N1c2ccccc2C[C@H]1C(=O)O)C(=O)OCC(=O)OC1CC2CCC1(C)C2(C)C` (stereo partly drawn) [1-4-(l-bornyloxycarbonylmethoxycarbonyl)-2R,4R-dimethylbutanoyl-indoline-2S-carboxylic acid], the “inhibition of the pressor response following angiotensin I challenge” value (from here on “inhibition”) in assay [1] is listed as “inhibit the pressor response”.
As for `CCOC(=O)[C@H](C)C[C@@H](C)C(=O)N1c2ccccc2C[C@H]1C(=O)O` [1-(4-carboethoxy-2R,4R-dimethylbutanoyl)-indoline-2S-carboxylic acid], in assay [2] (30 mg/Kg p.o.), the “decrease of heart rate” value is listed as “decrease heart rate” and the “lowering of blood pressure” value is reported as “significantly lower blood pressure”. Moreover, the “inhibition” value in assay [3] (dose as low as 0.3 mg/Kg i.v.) is listed as “about 50%”. For the same molecule, the “inhibition” value in assay [3] (dose as low as 4 mg/Kg p.o.) is “about 50%”.
On to `CCOC(=O)[C@H](CCc1ccccc1)C[C@@H](C)C(=O)N1c2ccccc2C[C@H]1C(=O)O` [1-(4-carboethoxy-2R-methyl-4R-phenethylbutanoyl)indoline-2S-carboxylic acid], for which, in assay [2] (10 mg/Kg p.o.), the “decrease of heart rate” value is “decrease heart rate” and the “lowering of blood pressure” value is “significantly lower blood pressure”.
Usually IC50 stands for the concentration that gives 50% inhibition. Higher therefore signals weaker potency. In turn, `C[C@H](C[C@@H](C)C(=O)N1c2ccccc2C[C@H]1C(=O)O)C(=O)O` [1-(4-carboxy-2R,4R-dimethylbutanoyl)-indoline-2S-carboxylic acid] yielded an IC50 in assay [4] of roughly 0.03 µM.
The molecule `C[C@H](C[C@@H](CCc1ccccc1)C(=O)O)C(=O)N1c2ccccc2C[C@H]1C(=O)O` [1-(4-carboxy-2R-methyl-4R-phenethylbutanoyl)indoline-2S-carboxylic acid] returned an IC50 in assay [4] of roughly 0.005 µM.
In assay [4], `C[C@H](CCC(=O)O)C(=O)N1c2ccccc2C[C@H]1C(=O)O` [1-(4-carboxy-2R-methylbutanoyl)-indoline-2S-carboxylic acid] displayed an IC50 of roughly 0.04 µM.
Molecule `O=C(O)CCCC(=O)N1c2ccccc2C[C@H]1C(=O)O` [1-(4-carboxybutanoyl)-indoline-2S-carboxylic acid] yielded an IC50 in assay [4] of roughly 0.3 µM.
With `C[C@H](C[C@@H](C)C(=O)N1c2ccccc2C[C@H]1C(=O)O)C(=O)OCOC(=O)C(C)(C)C` [1-[4-(pivaloyloxymethoxycarbonyl)-2R,4R-dimethylbutanoyl]-indoline-2S-carboxylic acid], the “inhibition” value in assay [1] is “inhibit the pressor response”.

These data come from patent publication US4479963A, “1-Carboxyalkanoylindoline-2-carboxylic acids” (Ciba-Geigy Corporation, priority 1982, dated 1984).
